We go through 13 compounds from patent US20170313674A1, “BENZYLHYDROXIDE DERIVATIVES, PREPARATION THEREOF AND THERAPEUTIC USE THEREOF” (SANOFI, priority 2014, published 2017).

One assay deals with HIF-1a. Description: Western blot model: HIF1-a stabilization in Hep3b cells under hypoxia. In kind it is cell-based. To be noted: hypoxia 1% O2, 6 hours; for Western Blot (range of decrease of HIF1-a stabilization): class symbol. The procedure:
Since it was sought to determine the efficacy of the compounds to inhibit HIF1a stabilization under hypoxia, the compounds according to the invention underwent biochemical studies in order to determine their capacity to decrease HIF stabilization in Hep3b cells under hypoxia (western blot model).
Hep3B cells are seeded at a rate of 300000 cells per well in 6-wells culture plate in 2 ml of MEM supplemented with glutamin (2 mM) and 10% FCS (foetal calf serum) and incubated at 37° C. in the presence of 5% CO2. The next day, the cells are placed in contact with the compound and an incubation under hypoxia at 1% O2 is carried out at 37° C. in 95% humidity and 5% CO2 in a sealed anaerobic workstation (Hypoxystation H35-Don Whitley—AES Chemunex) during 6 hours.
Cells were washed (PBS) and lysed in SDS sample buffer. Proteins (25 μg) were separated on 4-12% Bis-Tris gels and transferred onto polyvinylidene difluoride membranes (Millipore). Membranes were blotted with a mouse monoclonal antibody to HIF-1a (BD transduction) and a mouse monoclonal anti-βactin (Sigma). Immunoreactive bands were detected with a horse radish peroxydase (HRP) anti-mouse antibody (Sigma) by enhanced chemiluminescence (Promega).
The inhibitory activity of the compounds for their capacity to decrease HIF1-a stabilization in Hep3b under hypoxia is expressed as range of percentage relative to control with: […]
On the technique in general: Immunoblotting shows a protein as a band on a membrane.

Assay [1] has as its system mitochondrial ATP production on non-small cell lung carcinoma cell lines NCI-H460. Briefly: Mitochondrial ATP analysis (Cell Titer Glo) in NCI-H460 cells. The format is cell-based. Particulars: 1-hour incubation, with sodium iodoacetate (100 μM), concentration inhibiting 50% of mitochondrial ATP production, read-out: IC50 (mito ATP). The procedure:
In order to evaluate the inhibitory activity of the all compounds, an in vitro assay was developed which read out is directly linked to mitochondrial complex 1 inhibition. Since mitochondrial complex 1 contributes to the formation of membrane potential coupled to the mitochondrial ATP synthesis, complex 1 inhibition directly leads in cells to the inhibition of mitochondrial ATP production. Cellular ATP contents were measured in presence of either glycolysis inhibitor (sodium iodocetate) and/or mitochondrial inhibitors (F0F1-ATPase inhibitor: oligomycin or mitochondrial uncoupler: FCCP) to determine the ATP production part relying either on glycolytic or on mitochondrial metabolism.
Mitochondrial ATP Analysis
The compounds of the invention were evaluated for their ability to inhibit mitochondrial
ATP was measured using the Promega Cell Titer Glo kit and protocol. In summary, 1,000 cells were plated in 40 μL in a 384 well plate. 24 hours later, medium was replaced by 20 μl culture medium in presence of compounds: cells were treated in replicates of five with control (PBS), oligomycin A (10 μg/ml), FCCP (30 μM), or the compounds of the invention in dose effect both alone or in combination with sodium iodoacetate (100 μM). Following a 1-hour incubation, 20 μL of CellTtiter-glo™ reaction mix were added to each well for a final volume of 40 μL. Plates were then analyzed for luminescence with a Perkin Elmer EnVision. By comparing the different conditions, global ATP and percentages of both glycolytic and mitochondrial ATP were determined.
The mitochondrial ATP production was calculated as the remaining ATP under iodoacetate treatment minus basal ATP (ATP content under iodoacetate and oligomycin treatment). Inhibitory activity of the compounds on mitochondrial ATP in NCI-H460 cells is expressed as the concentration needed to inhibit 50% of mitochondrial ATP production (IC50, M).

By IC50 is commonly meant the concentration needed to halve the response being measured.

As for `COc1ccc(C(O)COc2ccc(-c3nc(-c4ccc(OCC(O)c5ccc(OC)c(OC)c5)cc4)c(C)s3)cc2)cc1OC` (single isomer, unassigned) [Compound I-11, 1-(3,4-dimethoxyphenyl)-2-[4-[2-[4-[2-(3,4-dimethoxyphenyl)-2-hydroxy-ethoxy]phenyl]-5-methyl-thiazol-4-yl]phenoxy]ethanol], in the assay on HIF-1a, the “Western Blot (decrease of HIF1-a stabilization, percentage relative to control)” value is on record as 65% and the “Western Blot (range of decrease of HIF1-a stabilization)” value is on record as “** (** represents a decrease of HIF-a stabilization between 50 to 70%)”. In addition, in assay [1], the IC50 turned out to be 557 nM.
Regarding `COc1ccc(C(O)COc2ccc(-c3coc(-c4ccc(OCC(O)c5ccc(OC)c(OC)c5)cc4)n3)cc2)cc1OC` (single isomer, unassigned) [Compound I-13, 1-(3,4-dimethoxyphenyl)-2-[4-[2-[4-[2-(3,4-dimethoxyphenyl)-2-hydroxy-ethoxy]phenyl]oxazol-4-yl]phenoxy]ethanol], in the assay on HIF-1a, the “Western Blot (decrease of HIF1-a stabilization, percentage relative to control)” value is on record as 51% and the “Western Blot (range of decrease of HIF1-a stabilization)” value was “** (** represents a decrease of HIF-a stabilization between 50 to 70%)”. For the same compound, in assay [1], the half-inhibitory concentration (IC50) turned out to be 69 nM.
On to `COc1ccc(C(O)COc2ccc(-c3coc(-c4ccc(OCC(O)c5ccc(OC)c(OC)c5)cc4)n3)cc2)cc1OC` (single isomer, unassigned) [Compound I-14, 1-(3,4-dimethoxyphenyl)-2-[4-[2-[4-[2-(3,4-dimethoxyphenyl)-2-hydroxy-ethoxy]phenyl]oxazol-4-yl]phenoxy]ethanol], for which, in the assay on HIF-1a, the “Western Blot (decrease of HIF1-a stabilization, percentage relative to control)” value amounted to 59% and the “Western Blot (range of decrease of HIF1-a stabilization)” value was “** (** represents a decrease of HIF-a stabilization between 50 to 70%)”. Also, in assay [1], the IC50 is 679 nM.
Consider `COc1ccc(C(O)C(C)(C)Oc2ccc(-c3coc(-c4ccc(OC(C)(C)C(O)c5ccc(OC)c(OC)c5)cc4)n3)cc2)cc1OC` (single isomer, unassigned) [Compound I-18, 1-(3,4-dimethoxyphenyl)-2-[4-[2-[4-[2-(3,4-dimethoxyphenyl)-2-hydroxy-1,1-dimethyl-ethoxy]phenyl]oxazol-4-yl]phenoxy]-2-methyl-propan-1-ol], for which, in the assay with HIF-1a, the “Western Blot (decrease of HIF1-a stabilization, percentage relative to control)” value was 71% and the “Western Blot (range of decrease of HIF1-a stabilization)” value was “*** (*** represents a decrease of HIF-a stabilization higher than 70%)”. In addition, in assay [1], the IC50 turned out to be 62.8 nM.
In the case of `COc1ccc(C(O)C(C)(C)Oc2ccc(-c3coc(-c4ccc(OC(C)(C)C(O)c5ccc(OC)c(OC)c5)cc4)n3)cc2)cc1OC` (single isomer, unassigned) [Compound I-19, 1-(3,4-dimethoxyphenyl)-2-[4-[2-[4-[2-(3,4-dimethoxyphenyl)-2-hydroxy-1,1-dimethyl-ethoxy]phenyl]oxazol-4-yl]phenoxy]-2-methyl-propan-1-ol], in the assay with HIF-1a, the “Western Blot (decrease of HIF1-a stabilization, percentage relative to control)” value is 56% and the “Western Blot (range of decrease of HIF1-a stabilization)” value is given as “** (** represents a decrease of HIF-a stabilization between 50 to 70%)”. The IC50 in assay [1] is 245 nM.
As for `COc1cc(C(O)COc2ccc(-c3coc(-c4ccc(OCC(O)c5cc(OC)c(OC)c(OC)c5)cc4)n3)cc2)cc(OC)c1OC` (single isomer, unassigned) [Compound I-21, 2-[4-[2-[4-[2-hydroxy-2-(3,4,5-trimethoxyphenyl)ethoxy]phenyl]oxazol-4-yl]phenoxy]-1-(3,4,5-trimethoxyphenyl)ethanol], in the assay on HIF-1a, the “Western Blot (decrease of HIF1-a stabilization, percentage relative to control)” value is 52% and the “Western Blot (range of decrease of HIF1-a stabilization)” value is reported as “** (** represents a decrease of HIF-a stabilization between 50 to 70%)”. The 50% inhibitory concentration (IC50) in assay [1] came out at 2650 nM.
The matching figures for `COc1cc(C(O)COc2ccc(-c3coc(-c4ccc(OCC(O)c5cc(OC)c(OC)c(OC)c5)cc4)n3)cc2)cc(OC)c1OC` (single isomer, unassigned) [Compound I-22, 2-[4-[2-[4-[2-hydroxy-2-(3,4,5-trimethoxyphenyl)ethoxy]phenyl]oxazol-4-yl]phenoxy]-1-(3,4,5-trimethoxyphenyl)ethanol]: 57%, “** (** represents a decrease of HIF-a stabilization between 50 to 70%)” and 1280 nM.
Regarding `COc1ccc(C(O)COc2ccc(-c3csc(-c4ccc(OCC(O)c5ccc(OC)c(OC)c5)cc4)n3)cc2)cc1OC` (single isomer, unassigned) [Compound I-24, 1-(3,4-dimethoxyphenyl)-2-[4-[2-[4-[2-(3,4-dimethoxyphenyl)-2-hydroxy-ethoxy]phenyl]thiazol-4-yl]phenoxy]ethanol], in the assay with HIF-1a, the “Western Blot (decrease of HIF1-a stabilization, percentage relative to control)” value was found to be 49% and the “Western Blot (range of decrease of HIF1-a stabilization)” value was “* (* represents a decrease of HIF-a stabilization between 30 to 50%)”. In addition, the IC50 in assay [1] was found to be 254 nM.
Take `COc1ccc(C(O)COc2ccc(-c3csc(-c4ccc(OCC(O)c5ccc(OC)c(OC)c5)cc4)n3)cc2)cc1OC` (single isomer, unassigned) [Compound I-25, 1-(3,4-dimethoxyphenyl)-2-[4-[2-[4-[2-(3,4-dimethoxyphenyl)-2-hydroxy-ethoxy]phenyl]thiazol-4-yl]phenoxy]ethanol]: in the assay with HIF-1a, the “Western Blot (decrease of HIF1-a stabilization, percentage relative to control)” value came to 41% and the “Western Blot (range of decrease of HIF1-a stabilization)” value is on record as “* (* represents a decrease of HIF-a stabilization between 30 to 50%)”. The 50% inhibitory concentration (IC50) in assay [1] was 195 nM.
`COc1ccc(C(O)C(C)Oc2ccc(-c3csc(-c4ccc(OC(C)C(O)c5ccc(OC)c(OC)c5)cc4)n3)cc2)cc1OC` (single isomer, unassigned) [Compound I-29, 1-(3,4-dimethoxyphenyl)-2-[4-[2-[4-[2-(3,4-dimethoxyphenyl)-2-hydroxy-1-methyl-ethoxy]phenyl]thiazol-4-yl]phenoxy]propan-1-ol]: in the assay with HIF-1a, the “Western Blot (decrease of HIF1-a stabilization, percentage relative to control)” value is 67% and the “Western Blot (range of decrease of HIF1-a stabilization)” value was “** (** represents a decrease of HIF-a stabilization between 50 to 70%)”. In addition, in assay [1], the IC50 turned out to be 159 nM.
As to `COc1ccc(C(O)C(C)Oc2ccc(-c3csc(-c4ccc(OC(C)C(O)c5ccc(OC)c(OC)c5)cc4)n3)cc2)cc1OC` (single isomer, unassigned) [Compound I-30, 1-(3,4-dimethoxyphenyl)-2-[4-[2-[4-[2-(3,4-dimethoxyphenyl)-2-hydroxy-1-methyl-ethoxy]phenyl]thiazol-4-yl]phenoxy]propan-1-ol], in the assay with HIF-1a, the “Western Blot (decrease of HIF1-a stabilization, percentage relative to control)” value was determined as 56% and the “Western Blot (range of decrease of HIF1-a stabilization)” value is “** (** represents a decrease of HIF-a stabilization between 50 to 70%)”. Further, the IC50 in assay [1] amounted to 167 nM.
Regarding `COc1ccc(C(O)C(C)Oc2ccc(-c3csc(-c4ccc(OC(C)C(O)c5ccc(OC)c(OC)c5)cc4)n3)cc2)cc1OC` (single isomer, unassigned) [Compound I-31, 1-(3,4-dimethoxyphenyl)-2-[4-[2-[4-[2-(3,4-dimethoxyphenyl)-2-hydroxy-1-methyl-ethoxy]phenyl]thiazol-4-yl]phenoxy]propan-1-ol], in the assay with HIF-1a, the “Western Blot (decrease of HIF1-a stabilization, percentage relative to control)” value is 64% and the “Western Blot (range of decrease of HIF1-a stabilization)” value is “** (** represents a decrease of HIF-a stabilization between 50 to 70%)”. Further, the IC50 in assay [1] came out at 300 nM.
With `COc1ccc(C(O)C(C)Oc2ccc(-c3csc(-c4ccc(OC(C)C(O)c5ccc(OC)c(OC)c5)cc4)n3)cc2)cc1OC` (single isomer, unassigned) [Compound I-32, 1-(3,4-dimethoxyphenyl)-2-[4-[2-[4-[2-(3,4-dimethoxyphenyl)-2-hydroxy-1-methyl-ethoxy]phenyl]thiazol-4-yl]phenoxy]propan-1-ol], in the assay on HIF-1a, the “Western Blot (decrease of HIF1-a stabilization, percentage relative to control)” value is on record as 45% and the “Western Blot (range of decrease of HIF1-a stabilization)” value is reported as “* (* represents a decrease of HIF-a stabilization between 30 to 50%)”. The IC50 in assay [1] came out at 47.6 nM.
